# Results published in ChEMBL document CHEMBL1129858, “Antitumor agents. 1771. Design, syntheses, and biological evaluation of novel etoposide analogs bearing pyrrolecarboxamidino group as DNA topoisomerase II inhibitors” (1997).
# Legend:
# [1] = test system: HCC 2998; test: Tested for the in vitro cytotoxicity against HCC2998 colon cancer cell lines; assay type: functional, Homo sapiens
# [2] = test system: MOLT-4; test: Tested for the in vitro cytotoxicity against MOLT-4 leukemia cell line; assay type: functional, Homo sapiens
# [3] = Average in vitro cytotoxicity was calculated from all cell lines tested; assay type: functional
# [4] = test system: ACHN; test: Tested for the in vitro cytotoxicity against ACHN renal cancer cell line; assay type: functional, Homo sapiens
# [5] = test system: M14; test: Tested for the in vitro cytotoxicity against M-14 melanoma; assay type: functional, Homo sapiens
# [6] = Average in vitro cytotoxicity was calculated from all cell lines tested, activity expressed as average log TGI50.; assay type: functional; conditions: read-out: Log TGI (converted)
# [7] = test system: SF-295; test: Tested for the in vitro cytotoxicity against SF-295 CNS tumor cell lines; assay type: functional, Homo sapiens
# [8] = test system: MCF7; test: Tested for the in vitro cytotoxicity against MCF-7 breast cancer cell line; assay type: functional, Homo sapiens
# [9] = test system: DU-145; test: Tested for the in vitro cytotoxicity against DU-145 prostate cancer cell line; assay type: functional, Homo sapiens
# [10] = test system: OVCAR-8; test: Tested for the in vitro cytotoxicity against OVCAR-8 ovarian cancer cell lines,; assay type: functional, Homo sapiens
# [11] = test system: NCI-H23; test: Tested for the in vitro cytotoxicity against NCI-H23 non-small cell lung cancer cell line; assay type: functional, Homo sapiens
# [12] = Average in vitro cytotoxicity was calculated from all cell lines tested,; assay type: functional
# [13] = test system: KB; test: Tested for the cellular protein DNA complex formation in KB cells at concentration of 25 uM; assay type: functional, Homo sapiens
# [14] = test system: KB; test: Tested for the cellular protein DNA complex formation in KB cells at the concentration of 2.5 uM; assay type: functional, Homo sapiens
# [15] = target: DNA topoisomerase II (Homo sapiens) (UniProt P11388+Q02880); test: Tested for the inhibition of DNA topoisomerase II; assay type: protein assay
# [16] = test system: KB; test: Tested for the cellular protein DNA complex formation in KB cells at concentration of 2.5 uM; assay type: functional, Homo sapiens
# [17] = test system: KB; test: Tested for the cytotoxicity against KB-7d cellsTested for the cytotoxicity against KB cells; ID50/LD50 = 0.2/>10; assay type: functional, cell-based
# [18] = test system: KB; test: Tested for the cytotoxicity against KB cells; ID50/LD50 = 0.08/>10; assay type: functional, cell-based; conditions: Homo sapiens
# [19] = test system: KB; test: Tested for the cellular protein DNA complex formation in KB cells at the concentration of 2.5 uM
smiles,measurement,setting,value
COc1cc([C@@H]2c3cc4c(cc3[C@@H](NC(=O)NO)[C@H]3COC(=O)[C@H]23)OCO4)cc(OC)c1O,GI50,"[1]; Homo sapiens, HCC 2998",4070 nM
same,GI50,"[2]; Homo sapiens, MOLT-4",4900 nM
same,LC50,[3],100000 nM
same,GI50,"[4]; Homo sapiens, ACHN",6030 nM
same,GI50,"[5]; Homo sapiens, M14",37200 nM
same,TGI,[6],93300 nM
same,GI50,"[7]; Homo sapiens, SF-295",5010 nM
same,GI50,"[8]; Homo sapiens, MCF7",7760 nM
same,GI50,"[9]; Homo sapiens, DU-145",7240 nM
same,GI50,"[10]; Homo sapiens, OVCAR-8",34700 nM
same,GI50,"[11]; Homo sapiens, NCI-H23",9330 nM
same,GI50,[12],9770 nM
COc1cc([C@@H]2c3cc4c(cc3[C@@H](Nc3ccc(NC(=O)c5cc([N+](=O)[O-])cn5C)cc3)[C@H]3COC(=O)[C@H]23)OCO4)cc(OC)c1O [listing 1 of 3 here],GI50,[1],245 nM
same,GI50,[4],14.1 nM
same,GI50,[5],63.1 nM
same,TGI,[6],525 nM
same,GI50,[7],138 nM
same,GI50,[9],14.4 nM
same,GI50,[10],126 nM
same,GI50,[11],38.9 nM
same,GI50,[12],100 nM
COc1cc([C@@H]2c3cc4c(cc3[C@@H](O[C@@H]3O[C@@H]5CO[C@@H](C)O[C@H]5[C@H](O)[C@H]3O)[C@H]3COC(=O)[C@H]23)OCO4)cc(OC)c1O [ETOPOSIDE],GI50,"[1]; Homo sapiens, HCC 2998",18200 nM
same,GI50,"[2]; Homo sapiens, MOLT-4",1020 nM
same,Activity,[13],100%
same,GI50,"[4]; Homo sapiens, ACHN",871 nM
same,GI50,"[5]; Homo sapiens, M14",813 nM
same,TGI,[6],77600 nM
same,GI50,"[7]; Homo sapiens, SF-295",10000 nM
same,GI50,"[8]; Homo sapiens, MCF7",4370 nM
same,GI50,"[9]; Homo sapiens, DU-145",851 nM
same,Activity,[14],100%
same,IC100,[15],100 µM
same,GI50,"[10]; Homo sapiens, OVCAR-8",16600 nM
same,GI50,"[11]; Homo sapiens, NCI-H23",8320 nM
same,GI50,[12],9770 nM
COc1cc([C@@H]2c3cc4c(cc3[C@@H](Nc3ccc(NC(=O)c5cc([N+](=O)[O-])cn5C)cc3)[C@H]3COC(=O)[C@H]23)OCO4)cc(OC)c1O [listing 2 of 3 here],GI50,"[1]; Homo sapiens, HCC 2998",224 nM
same,GI50,"[2]; Homo sapiens, MOLT-4",< 10 nM
same,Activity,[13],100%
same,GI50,"[4]; Homo sapiens, ACHN",11.8 nM
same,GI50,"[5]; Homo sapiens, M14",45.7 nM
same,TGI,[6],1950 nM
same,GI50,[7],51.3 nM
same,Activity,[16],225%
same,GI50,"[8]; Homo sapiens, MCF7",< 10 nM
same,GI50,"[9]; Homo sapiens, DU-145",17 nM
same,GI50,"[10]; Homo sapiens, OVCAR-8",97.7 nM
same,GI50,"[11]; Homo sapiens, NCI-H23",49 nM
same,GI50,[12],123 nM
COc1cc([C@@H]2c3cc4c(cc3[C@@H](NCCNCCO)[C@H]3COC(=O)[C@H]23)OCO4)cc(OC)c1O [listing 1 of 2 here],GI50,[1],3390 nM
same,GI50,[2],26.9 nM
same,LC50,[3],83200 nM
same,GI50,[4],339 nM
same,GI50,[5],4070 nM
same,TGI,[6],21400 nM
same,GI50,[7],1020 nM
same,GI50,[8],95.5 nM
same,GI50,[9],2290 nM
same,GI50,[10],2400 nM
same,GI50,[11],661 nM
same,GI50,[12],1860 nM
COc1cc([C@@H]2c3cc4c(cc3[C@@H](Nc3ccc(NC(=O)c5cc(NC(=O)c6cc([N+](=O)[O-])cn6C)cn5C)cc3)[C@H]3COC(=O)[C@H]23)OCO4)cc(OC)c1O,Ratio,[17],ID50/LD50 = 0.2/>10
same,GI50,"[1]; Homo sapiens, HCC 2998",6030 nM
same,GI50,"[2]; Homo sapiens, MOLT-4",< 10 nM
same,LC50,[3],81300 nM
same,Cytotoxicity,[18],ID50/LD50 = 0.08/>10
same,Activity,[13],26%
same,Activity,[19],30%
same,GI50,"[4]; Homo sapiens, ACHN",229 nM
same,GI50,"[5]; Homo sapiens, M14",5500 nM
same,TGI,[6],28800 nM
same,GI50,"[7]; Homo sapiens, SF-295",4900 nM
same,GI50,"[8]; Homo sapiens, MCF7",47.9 nM
same,GI50,"[9]; Homo sapiens, DU-145",372 nM
same,IC100,[15],100 µM
same,GI50,"[10]; Homo sapiens, OVCAR-8",759 nM
same,GI50,"[11]; Homo sapiens, NCI-H23",724 nM
same,GI50,[12],1170 nM
CNCCN[C@@H]1c2cc3c(cc2[C@@H](c2cc(OC)c(O)c(OC)c2)[C@H]2C(=O)OC[C@@H]21)OCO3,GI50,"[1]; Homo sapiens, HCC 2998",269 nM
same,GI50,"[2]; Homo sapiens, MOLT-4",< 10 nM
same,LC50,[3],38900 nM
same,GI50,"[4]; Homo sapiens, ACHN",66.1 nM
same,GI50,"[5]; Homo sapiens, M14",398 nM
same,TGI,[6],3020 nM
same,GI50,"[7]; Homo sapiens, SF-295",29.5 nM
same,GI50,"[8]; Homo sapiens, MCF7",14.4 nM
same,GI50,"[9]; Homo sapiens, DU-145",363 nM
same,GI50,"[10]; Homo sapiens, OVCAR-8",309 nM
same,GI50,"[11]; Homo sapiens, NCI-H23",162 nM
same,GI50,[12],240 nM
COc1cc([C@@H]2c3cc4c(cc3[C@@H](Nc3ccc(NC(=O)c5cc([N+](=O)[O-])cn5C)cc3)[C@H]3COC(=O)[C@H]23)OCO4)cc(OC)c1O [listing 3 of 3 here],IC100,[15],12.5 µM
COc1cc([C@@H]2c3cc4c(cc3[C@@H](NCCNCCO)[C@H]3COC(=O)[C@H]23)OCO4)cc(OC)c1O [listing 2 of 2 here],GI50,"[1]; Homo sapiens, HCC 2998",1260 nM
same,GI50,[2],< 10 nM
same,LC50,[3],66100 nM
same,GI50,[4],2340 nM
same,GI50,"[5]; Homo sapiens, M14",3980 nM
same,TGI,[6],12000 nM
same,GI50,[7],178 nM
same,GI50,[8],38.9 nM
same,GI50,"[9]; Homo sapiens, DU-145",2750 nM
same,GI50,"[10]; Homo sapiens, OVCAR-8",2630 nM
same,GI50,"[11]; Homo sapiens, NCI-H23",1320 nM
same,GI50,[12],1350 nM
